According to US20220105127A1, “METHODS FOR PROVIDING THE BENEFITS OF METHIONINE RESTRICTION WITHOUT DIETARY RESTRICTION” (priority 2020, published 2022):

Columns and labels:
Type in all cases: in vivo, mouse
leptin = assay: Experiment 1: high-fat diet with selenium compounds, plasma leptin ELISA
Procedure: (§1) All animal studies conducted were approved by the Institutional Animal Care and Use Committee (IACUC) of the Orentreich Foundation for the Advancement of Science, Inc. (Permit Number: 0511 MB). C57BL/6J mice (stock number 000664) were purchased from the Jackson Laboratories (Bar Harbor, Me.) and housed in a conventional animal facility maintained at 20±2° C., 50±10% relative humidity, with a 12 hr/12 hr light/dark photoperiod. Food and water were provided ad libitum. Upon arrival, mice were acclimatized for up to one week and fed Purina Lab Chow 5001 (Ralston Purina, Co.; St. Louis, Mo.).
(§2) At the beginning of the experiment, the mice were divided into 5 groups with each group being fed one of five isocaloric (5.3 kcal/gm) high-fat diets ad libitum for several weeks. Each high-fat diet comprising a base of 12% kcal protein, 31% kcal carbohydrate, and 57% kcal fat. The first group's diet was the control-fed diet and included the base and methionine in an amount that represented about 0.86% of the weight of the food (sometimes referred to as “control group,” “control-fed group,” or “group 1”). […] Amounts of selenium-containing compounds used for this and subsequent experiments were determined from pilot studies aimed at identifying minimal doses that still achieve high efficacy. […]
(§3) Body mass and food consumption were monitored once a week for sixteen weeks. […] The mice were then sacrificed, their overall body condition was assessed, and certain physiological parameters were measured. […]
(§4) Enzyme-linked immunosorbent assay (ELISA) kits were obtained commercially and used to measure plasma levels of IGF-1 (R&D Systems; Minneapolis, Minn.), adiponectin (R&D Systems), FGF-21 (Millipore Corp.; Billerica, Mass.), leptin (R&D Systems), growth hormone (Millipore Corp.), and insulin (ALPCO Diagnostics; Salem, N.H.). Tests were performed according to the manufacturers' recommendations and measured using a Molecular Devices SpectraMax M5 Microplate Reader (Molecular Devices LLC; San Jose, Calif.). […]

insulin = assay: Experiment 1: high-fat diet with selenium compounds, plasma insulin ELISA; conditions: untreated = 100%, sodium selenite 0.0073% of food
Procedure: as §1
(§5) At the beginning of the experiment, the mice were divided into 5 groups with each group being fed one of five isocaloric (5.3 kcal/gm) high-fat diets ad libitum for several weeks. Each high-fat diet comprising a base of 12% kcal protein, 31% kcal carbohydrate, and 57% kcal fat. […] Amounts of selenium-containing compounds used for this and subsequent experiments were determined from pilot studies aimed at identifying minimal doses that still achieve high efficacy. […]
as §3

IGF-1 = assay: Experiment 1: high-fat diet with selenium compounds, plasma IGF-1 ELISA; conditions: sodium selenite 0.0073% of food
Procedure: as §1, §2, §3, §4

C57BL/6J mice [1] = assay: Experiment 1: high-fat diet with selenium compounds, body mass, fat pad and liver mass; conditions: for Inguinal Fat Mass, Females / Perigonadal Fat Mass, Females / Total Body Mass, Females: female mice; for Inguinal Fat Mass, Females / Perigonadal Fat Mass, Females / Total Body Mass, Females / Inguinal Fat Mass, Males / Perigonadal Fat Mass, Males / Total Body Mass, Males: untreated = 100%, sodium selenite 0.0073% of food, selenomethionine 0.0036% or 0.0073% (which not stated); for Total Body Mass, Females / Total Body Mass, Males: 16 weeks
Procedure: as §1
At the beginning of the experiment, the mice were divided into 5 groups with each group being fed one of five isocaloric (5.3 kcal/gm) high-fat diets ad libitum for several weeks. Each high-fat diet comprising a base of 12% kcal protein, 31% kcal carbohydrate, and 57% kcal fat. The first group's diet was the control-fed diet and included the base and methionine in an amount that represented about 0.86% of the weight of the food (sometimes referred to as “control group,” “control-fed group,” or “group 1”). The second group's diet was the methionine-restricted group where the base-diet was restricted to 0.12% methionine as a percentage of the total weight of the food (sometimes referred to as “methionine-restricted group” or “group 2”). The third group was fed the base diet containing 0.86% methionine, which was supplemented with sodium selenite in an amount representing 0.0073% of the total weight of the food (sometimes referred to as “sodium selenite-supplemented group” or “group 3”). The fourth group was fed the base diet containing 0.86% methionine, supplemented with 0.0036% selenomethionine, as a percentage of the total food weight (sometimes referred to as “group 4”). The fifth group was fed the base diet containing 0.86% methionine as a percentage of the total weight of the food, supplemented with 0.0073% selenomethionine as a percentage of the total weight of the food (sometimes referred to as “group 5”). Amounts of selenium-containing compounds used for this and subsequent experiments were determined from pilot studies aimed at identifying minimal doses that still achieve high efficacy. […] The amount of selenomethionine administered to the animals in the fourth and fifth groups was approximately 1/200 and 1/100 times respectively, of the levels of sulfur-containing amino acids (i.e., methionine and cysteine) present in the subjects' diets.
Body mass and food consumption were monitored once a week for sixteen weeks. Prior to blood collection, animals were fasted for 4 hours to establish a physiological baseline. Blood was then collected from the retro-orbital plexus and processed using EDTA-K2-coated blood collection tubes (Milian Dutscher Group; Geneva, Switzerland). The resulting plasma was frozen and stored at −80° C. until used for analysis. A portion of each blood sample was used for blood glucose determination using an Abbott Freestyle Lite glucometer and glucose strips (Abbott Diabetes Care, Inc.; Alameda, Calif.). At the end of each study, animals were fasted and bled, as described above. The mice were then sacrificed, their overall body condition was assessed, and certain physiological parameters were measured. The inguinal and perigonadal fat pads, as well as liver of each mouse, were harvested by surgical resection, weighed, flash frozen, and stored at −80° C.

plasma glucose = assay: Experiment 1: high-fat diet with selenium compounds, plasma glucose; conditions: untreated = 100%, sodium selenite 0.0073% of food
Procedure: as §1, §5, §3

adiponectin = assay: Experiment 1: high-fat diet with selenium compounds, plasma adiponectin ELISA; conditions: untreated = 100%, sodium selenite 0.0073% of food
Procedure: as §1, §5, §3

FGF-21 = assay: Experiment 1: high-fat diet with selenium compounds, plasma FGF-21 ELISA; conditions: untreated = 100%, sodium selenite 0.0073% of food
Procedure: as §1, §5, §3

C57BL/6J mice [2] = assay: Experiment 3: low-fat diet with selenomethionine, inguinal and perigonadal fat pad weight; conditions: male mice, selenomethionine 0.00015% of food, low-fat diet (10% of calories from fat), 8 week interval, p<0.01; even more effectively than methionine restriction
Procedure: as §1
In this experiment, male mice were divided into three groups, with each group being fed a separate low-fat diet ad libitum for 8 weeks. The first group represented the control-fed group (CF group) and was fed a low-fat base diet that included 0.86% methionine as a percentage of total food. The second group was fed a methionine-restricted diet (MR group) where the amount of methionine was restricted to 0.12% of total consumed. The third group was fed the base diet supplemented with selenomethionine (SMS group) in an amount representing 0.00015% of total food consumed.
FIGS. 9A and 9B depict the reduced white adipose tissue accumulation of the SMS group as compared with the MR group and the CF group. […]

SMILES: O=[Se](O)O [Sodium Selenite, sodium selenite]
- Plasma Leptin, Females (leptin; female mice, high-fat diet, untreated = 100%, sodium selenite 0.0073% of food): 17%
- Plasma Leptin, Males (leptin; male mice, high-fat diet, untreated = 100%, sodium selenite 0.0073% of food): 4%
- reduction in circulating leptin as compared with controls (leptin; male mice, sodium selenite-supplemented high-fat diet for 16 weeks): 96%
- Plasma Insulin, Females (insulin; female mice): 25%
- Plasma Insulin, Males (insulin; male mice): 19%
- Plasma IGF-1, Females (IGF-1; female mice, untreated = 100%): 35%
- Plasma IGF-1, Males (IGF-1; male mice, untreated = 100%): 63%
- reduction of plasma IGF-1 levels as compared with control values (IGF-1; at the conclusion of experiment 1): 37%
- Inguinal Fat Mass, Females (C57BL/6J mice [1]; high-fat diet): 19%
- Perigonadal Fat Mass, Females (C57BL/6J mice [1]; high-fat diet): 20%
- Total Body Mass, Females (C57BL/6J mice [1]; high-fat diet): 66%
- Inguinal Fat Mass, Males (C57BL/6J mice [1]; male mice, high-fat diet): 17%
- Perigonadal Fat Mass, Males (C57BL/6J mice [1]; male mice, high-fat diet): 20%
- Total Body Mass, Males (C57BL/6J mice [1]; male mice, high-fat diet): 60%
- Plasma Glucose, Females (plasma glucose; female mice): 69%
- Plasma Glucose, Males (plasma glucose; male mice): 71%
- Plasma Adiponectin, Females (adiponectin; female mice): 134%
- Plasma Adiponectin, Males (adiponectin; male mice): 128%
- Plasma FGF-21, Females (FGF-21; female mice): 3971%
- Plasma FGF-21, Males (FGF-21; male mice): 3045%

SMILES: C[Se]CC[C@H](N)C(=O)O [Selenomethionine, selenomethionine]
- accumulation of inguinal and perigonadal adipose tissue (FIGS. 9A, 9B) (C57BL/6J mice [2]): robust protection against the accumulation of adipose tissue
- Inguinal Fat Mass, Females (C57BL/6J mice [1]; high-fat diet): 48%
- Perigonadal Fat Mass, Females (C57BL/6J mice [1]; high-fat diet): 55%
- Total Body Mass, Females (C57BL/6J mice [1]; high-fat diet): 79%
- Inguinal Fat Mass, Males (C57BL/6J mice [1]; male mice, high-fat diet): 54%
- Perigonadal Fat Mass, Males (C57BL/6J mice [1]; male mice, high-fat diet): 60%
- Total Body Mass, Males (C57BL/6J mice [1]; male mice, high-fat diet): 84%
- overall body mass / diet-induced obesity (C57BL/6J mice [1]; male mice, selenomethionine 0.0036% and 0.0073% of food, high-fat diet, vs control-fed littermates): dose-dependent protection against diet-induced obesity
- inguinal and perigonadal adipose tissue (C57BL/6J mice [1]; male mice, selenomethionine-supplemented high-fat diet): less inguinal and perigonadal adipose tissue
- liver mass (C57BL/6J mice [1]; selenomethionine-supplemented vs control animals, high-fat diet): not significantly different
